The results in this text go back to ChEMBL document CHEMBL4346659, “Design, synthesis and evaluation of novel 7H-pyrrolo[2,3-d]pyrimidin-4-amine derivatives as potent, selective and reversible Bruton's tyrosine kinase (BTK) inhibitors for the treatment of rheumatoid arthritis” (Eur J Med Chem, 2019).

As usually defined, the inhibition is the relative decrease from the control value, in per cent. By IC50 is commonly meant the concentration needed to halve the response being measured.

The target of experiment [1] is T1, Tyrosine-protein kinase BTK (Homo sapiens, UniProt Q06187). Description: Inhibition of BTK (unknown origin) at 0.1 uM in the presence of ATP by caliper mobility shift assay relative to control.
A further experiment relates to JeKo-1. Put plainly: Antiproliferative activity against human JeKo1 cells. Format: functional, cell-based. Also noted: fold change (FC): reference not given here. The following applies: for IC50: Homo sapiens, JeKo-1.
Experiment [2] concerns the target T1, Tyrosine-protein kinase BTK. Description: Inhibition of BTK (unknown origin) at 1 uM in the presence of ATP by caliper mobility shift assay relative to control.
For experiment [3] the target is unchanged. Description: Inhibition of BTK (unknown origin) in the presence of ATP by caliper mobility shift assay.
In another experiment the test system is Ramos. Put plainly: Antiproliferative activity against human Ramos cells. The following applies: for IC50: Homo sapiens, Ramos. The class given is functional, cell-based. Also on record: fold change (FC): reference not given here.
In a further experiment the test system is Daudi. Put plainly: Antiproliferative activity against human Daudi cells. Format: functional, cell-based. Also on record: fold change (FC): reference not given here. To be noted: for IC50: Homo sapiens, Daudi.
Experiment [4] deals with Mus musculus. Description: Antiarthritic activity in DBA1/J mouse model of collagen-induced arthritis assessed as reduction in cartilage damage at 12.5 mg/kg, po qd by H and E staining based assay. Format: functional, organism-based.
Experiment [5] has as its system Mus musculus. Put plainly: Antiarthritic activity in DBA1/J mouse model of collagen-induced arthritis assessed as reduction in bone erosion at 12.5 mg/kg, po qd by H and E staining based assay. Format: functional, organism-based.

The source made the active and inactive calls. The calls are words filed in the database; no cut-off is given here.

T1 sequence (Q06187 whole entry): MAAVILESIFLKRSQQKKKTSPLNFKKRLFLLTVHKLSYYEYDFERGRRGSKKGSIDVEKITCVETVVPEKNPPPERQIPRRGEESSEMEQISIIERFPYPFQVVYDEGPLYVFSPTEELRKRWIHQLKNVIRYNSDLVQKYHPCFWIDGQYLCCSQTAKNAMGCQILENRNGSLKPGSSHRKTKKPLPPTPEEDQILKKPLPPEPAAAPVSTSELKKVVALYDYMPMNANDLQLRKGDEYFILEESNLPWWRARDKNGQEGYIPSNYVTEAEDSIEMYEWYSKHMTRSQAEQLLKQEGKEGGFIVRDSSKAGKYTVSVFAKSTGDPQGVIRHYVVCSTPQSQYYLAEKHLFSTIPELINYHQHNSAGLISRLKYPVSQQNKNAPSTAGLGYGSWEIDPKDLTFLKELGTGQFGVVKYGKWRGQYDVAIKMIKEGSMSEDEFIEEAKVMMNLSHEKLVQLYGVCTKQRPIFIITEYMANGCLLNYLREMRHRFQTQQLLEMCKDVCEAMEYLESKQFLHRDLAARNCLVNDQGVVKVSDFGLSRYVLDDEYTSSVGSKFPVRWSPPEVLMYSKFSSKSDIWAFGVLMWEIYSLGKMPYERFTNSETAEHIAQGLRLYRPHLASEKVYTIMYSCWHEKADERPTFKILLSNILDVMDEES

On to `Nc1ncnc2c1c(-c1ccc3c(c1)OCO3)cn2C[C@H]1CCCN1C[C@@H]1CO1`, for which the results for the inhibition in experiment [1] and in experiment [2] were 81.6% and 94.5%, respectively. Besides, the IC50 in the experiment with JeKo-1 amounted to 4.83 µM; in experiment [3] it was 0.0089 µM; in the experiment with Ramos, 18 µM; with Daudi, 8.97 µM.
In the case of `Nc1ncnc2c1c(-c1ccc(Oc3ccccc3)cc1)cn2[C@H]1CCN(C[C@@H]2CO2)C1`, the inhibition in experiment [1] amounted to 79.1%; in experiment [2] it was 98.1%. Besides, the 50% inhibitory concentration (IC50) in the experiment with JeKo-1 is 1.48 µM; in experiment [3] it was 0.0311 µM; with Ramos, 6.71 µM; in the experiment on Daudi, 5.48 µM.
`Nc1ncnc2c1c(-c1ccc3c(c1)OCO3)cn2[C@H]1CCN(CC2CO2)C1` (some centres undefined): the inhibition in experiment [1] is 70.1%; in experiment [2] it was 96.6%. Further, the IC50 in experiment [3] was 0.0455 µM.
For `Nc1ncnc2c1c(-c1ccc(Oc3ccccc3)cc1)cn2[C@H]1CCN(C[C@H]2CO2)C1`, the inhibition came out at 52% in experiment [1] and 90.1% in experiment [2]. For the same molecule, the “fold change (FC)” value in the experiment with JeKo-1, in the experiment on Ramos and in the experiment on Daudi was 3 - 10 each time. Also, the IC50 is 5.08 µM in the experiment with JeKo-1, 0.0894 µM in experiment [3], more than 50 µM in the experiment on Ramos and 15.7 µM in the experiment with Daudi.
For the molecule `Nc1ncnc2c1c(-c1ccc3c(c1)OCO3)cn2[C@@H]1CCN(C[C@H]2CO2)C1`, the inhibition came to 15.2% in experiment [1] and 42% in experiment [2]. For the same molecule, the IC50 in the experiment with JeKo-1 was 32.5 µM; in experiment [3], more than 0.5 µM; with Ramos, more than 50 µM; in the experiment with Daudi, 53.8 µM.
Turning to `C=CC(=O)N1CCC[C@@H](n2nc(-c3ccc(Oc4ccccc4)cc3)c3c(N)ncnc32)C1` [IBRUTINIB], the IC50 with JeKo-1 was 1.05 µM; in the experiment on Ramos, 5.01 µM; in the experiment on Daudi, 3.92 µM. Further, the result in the experiment with Mus musculus [4] was inactive. In the experiment with Mus musculus [5], the outcome was Active.
With `Nc1ncnc2c1c(-c1ccc3c(c1)OCO3)cn2C[C@@H]1CCN(C[C@@H]2CO2)C1`, the inhibition in experiment [1] was found to be 48.3%; in experiment [2], 86.3%. The IC50 with JeKo-1 was determined as 10.3 µM; in experiment [3], 0.123 µM; with Ramos, 13.3 µM; with Daudi, 15.9 µM.
`NC(=O)CN1CC[C@H](n2cc(-c3ccc4c(c3)OCO4)c3c(N)ncnc32)C1`: the inhibition in experiment [1] amounted to 12.6%; in experiment [2] it was 48.6%. The IC50 in the experiment on JeKo-1 was 4.98 µM; in experiment [3], more than 0.5 µM; with Ramos it was 13.3 µM; in the experiment with Daudi, 3.45 µM.
Turning to `Nc1ncnc2c1c(-c1ccc3c(c1)OCO3)cn2[C@H]1CCN(C[C@H]2CO2)C1`, the inhibition was 62.2% in experiment [1] and 86.5% in experiment [2]. The IC50 in the experiment with JeKo-1 is 2.28 µM; in experiment [3], 0.0419 µM; in the experiment with Ramos it was 5 µM; with Daudi it was 2.44 µM.
As for `CC1(CN2CC[C@H](n3cc(-c4ccc5c(c4)OCO5)c4c(N)ncnc43)C2)COC1`, the values for the inhibition in experiment [1] and in experiment [2] were 13.9% and 36.1%, respectively. In addition, the IC50 with JeKo-1 is 19 µM; in experiment [3], more than 0.5 µM; in the experiment on Ramos it was 20.4 µM; in the experiment on Daudi it was 44.7 µM.
As for `Nc1ncnc2c1c(-c1ccc3c(c1)OCO3)cn2[C@H]1CCN(C2COC2)C1`, the inhibition in experiment [1] is 19.7%; in experiment [2] it was 52%. Moreover, the IC50 in the experiment with JeKo-1 was more than 50 µM; in experiment [3] it was more than 0.5 µM; with Ramos it was more than 50 µM; in the experiment on Daudi, more than 50 µM.
In the case of `Nc1ncnc2c1c(-c1ccc3c(c1)OCO3)cn2[C@H]1CCN(C(=O)C2CC2)C1`, the inhibition was -3.67% in experiment [1] and 34% in experiment [2]. For the same molecule, the IC50 in experiment [3] worked out at 0.045 µM.
Take `Nc1ncnc2c1c(-c1ccc3c(c1)OCO3)cn2[C@H]1CCN(C[C@@H]2CO2)C1`: the results for the inhibition in experiment [1] and in experiment [2] were 87.6% and 93.5%, respectively. In addition, the IC50 in the experiment with JeKo-1 was determined as 3.41 µM; in experiment [3] it was 0.0366 µM; in the experiment on Ramos, 12.5 µM; in the experiment with Daudi, 2.39 µM.
As for `CCOC(=O)C(C)N1CC[C@H](n2cc(-c3ccc4c(c3)OCO4)c3c(N)ncnc32)C1` (some centres undefined), the inhibition amounted to 5.71% in experiment [1] and 44.1% in experiment [2]. Moreover, the IC50 in the experiment on JeKo-1 came to 1.21 µM; with Ramos it was 9.92 µM; in the experiment with Daudi, 25.5 µM.
Take `Nc1ncnc2c1c(-c1ccc3c(c1)OCO3)cn2C1=CCN(C[C@@H]2CO2)CC1`: the figures for the inhibition in experiment [1] and in experiment [2] were 1.81% and 42.6%, respectively. Moreover, the IC50 in the experiment with JeKo-1 turned out to be 12.8 µM; in the experiment with Ramos it was 2.11 µM; in the experiment on Daudi it was 5.02 µM.
With `Nc1ncnc2c1c(-c1ccc(C(=O)Nc3ccc(Oc4ccccc4)cc3)cc1)cn2[C@H]1CCN(C[C@@H]2CO2)C1`, the results for the inhibition in experiment [1] and in experiment [2] were 7.58% and 36.9%, respectively. Besides, the IC50 in the experiment with JeKo-1 amounted to 2.07 µM; with Ramos, 3.63 µM; in the experiment with Daudi, 4.39 µM.
